Test results reported in the supplement of paper PMC11451515.

System: NOMO1
Assay: cell viability relative to DMSO control; higher = less cytotoxic
Conditions: 48 h
Outline: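 Viability was expressed as a per-plate percentage of DMSO wells, with cell-free wells as background. Leukemia cells (NOMO1 or SEM at 500 cells/well, P12-Ichikawa at 1000 cells/well) were adapted for at least four passages in each medium and seeded in 1536-well plates (5 μl). Library compounds in DMSO were pin-dosed over an 11-point threefold series from 47 μM to 0.79 nM, and CellTiter-Glo One luminescence was read after 48 h at 37°C.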

[1] = HPLM + 10% dialyzed FBS, 0.000781 µM
[2] = HPLM + 10% dialyzed FBS, 0.00234 µM
[3] = HPLM + 10% dialyzed FBS, 0.00702 µM
[4] = HPLM + 10% dialyzed FBS, 0.0211 µM
[5] = HPLM + 10% dialyzed FBS, 0.0632 µM
[6] = HPLM + 10% dialyzed FBS, 0.19 µM
[7] = HPLM + 10% dialyzed FBS, 0.569 µM
[8] = HPLM + 10% dialyzed FBS, 1.71 µM
[9] = HPLM + 10% dialyzed FBS, 5.12 µM
[10] = HPLM + 10% dialyzed FBS, 15.4 µM
[11] = HPLM + 10% dialyzed FBS, 46.1 µM
[12] = RPMI 5 mM glucose + 10% FBS, 0.000781 µM
[13] = RPMI 5 mM glucose + 10% FBS, 0.00234 µM
[14] = RPMI 5 mM glucose + 10% FBS, 0.00702 µM
[15] = RPMI 5 mM glucose + 10% FBS, 0.0211 µM
[16] = RPMI 5 mM glucose + 10% FBS, 0.0632 µM
[17] = RPMI 5 mM glucose + 10% FBS, 0.19 µM
[18] = RPMI 5 mM glucose + 10% FBS, 0.569 µM
[19] = RPMI 5 mM glucose + 10% FBS, 1.71 µM
[20] = RPMI 5 mM glucose + 10% FBS, 5.12 µM
[21] = RPMI 5 mM glucose + 10% FBS, 15.4 µM
[22] = RPMI 5 mM glucose + 10% FBS, 46.1 µM
[23] = RPMI 5 mM glucose + 10% dialyzed FBS, 0.000781 µM
[24] = RPMI 5 mM glucose + 10% dialyzed FBS, 0.00234 µM
[25] = RPMI 5 mM glucose + 10% dialyzed FBS, 0.00702 µM
[26] = RPMI 5 mM glucose + 10% dialyzed FBS, 0.0211 µM
[27] = RPMI 5 mM glucose + 10% dialyzed FBS, 0.0632 µM
[28] = RPMI 5 mM glucose + 10% dialyzed FBS, 0.19 µM
[29] = RPMI 5 mM glucose + 10% dialyzed FBS, 0.569 µM
[30] = RPMI 5 mM glucose + 10% dialyzed FBS, 1.71 µM
[31] = RPMI 5 mM glucose + 10% dialyzed FBS, 5.12 µM
[32] = RPMI 5 mM glucose + 10% dialyzed FBS, 15.4 µM
[33] = RPMI 5 mM glucose + 10% dialyzed FBS, 46.1 µM

| SMILES | cell viability [1] | cell viability [2] | cell viability [3] | cell viability [4] | cell viability [5] | cell viability [6] | cell viability [7] | cell viability [8] | cell viability [9] | cell viability [10] | cell viability [11] | cell viability [12] | cell viability [13] | cell viability [14] | cell viability [15] | cell viability [16] | cell viability [17] | cell viability [18] | cell viability [19] | cell viability [20] | cell viability [21] | cell viability [22] | cell viability [23] | cell viability [24] | cell viability [25] | cell viability [26] | cell viability [27] | cell viability [28] | cell viability [29] | cell viability [30] | cell viability [31] | cell viability [32] | cell viability [33] |
| --- | --- | --- | --- | --- | --- | --- | --- | --- | --- | --- | --- | --- | --- | --- | --- | --- | --- | --- | --- | --- | --- | --- | --- | --- | --- | --- | --- | --- | --- | --- | --- | --- | --- |
| Cc1c[nH]c(/C=C2\C(=O)Nc3ccccc32)c1CCC(=O)O | 109% | 114% | 116% | 101% | 90.1% | 102% | 95.3% | 83% | 82.2% | 61.3% | 50.7% | 125% | 124% | 114% | 122% | 122% | 116% | 121% | 116% | 103% | 70.6% | 68.1% | 123% | 126% | 121% | 110% | 109% | 111% | 118% | 104% | 91.7% | 77.1% | 58.6% |
| O=C/1\C=C(/OC(=C1)/C2=C3SC4=C(SC3=CC=C2)C=CC=C4)N5CCOCC5 | 93.3% | 94.6% | 103% | 32.3% | 112% | 103% | 122% | 105% | 84% | 90.1% | 82% | 79.8% | 93.2% | 91.1% | 19.4% | 92% | 91.9% | 94.7% | 96.7% | 89.1% | 89.3% | 90.3% | 81.3% | 93.6% | 98.1% | 33.1% | 88.2% | 104% | 107% | 99.3% | 83.7% | 81.2% | 86.2% |
| CNC(=O)c1cccc(-c2ccc3c(N4CCOC[C@@H]4C)nc(N4CCOC[C@@H]4C)nc3n2)c1 | 99.9% | 99.8% | 83.6% | 92.1% | 73.8% | 61.4% | 64.3% | 67.3% | 60.1% | 49.3% | 53.7% | 98.3% | 91.1% | 91.2% | 96.6% | 79.6% | 82.9% | 87.2% | 68.9% | 57.9% | 60.2% | 45.2% | 83.7% | 85.7% | 90.5% | 79.5% | 75.6% | 62.8% | 62.5% | 54.8% | 50.4% | 49.4% | 50.3% |
| O=C1c2c(O)cccc2[C@H]([C@@H]2O[C@H](CO)[C@@H](O)[C@H](O)[C@H]2O)c2cc(CO)cc(O)c21 | 87% | 101% | 97.9% | 77% | 110% | 122% | 102% | 102% | 111% | 93.4% | 97.5% | 87.8% | 91.8% | 81% | 80.8% | 94.5% | 79.8% | 80.3% | 83.1% | 83.1% | 85.8% | 84.6% | 84.7% | 80.2% | 106% | 88.3% | 87.6% | 96.6% | 96.3% | 86.6% | 89% | 83.1% | 94.6% |
| C[C@H](NC(=O)C(=O)Nc1ccccc1C(C)(C)C)C(=O)N[C@@H](CC(=O)O)C(=O)COc1c(F)c(F)cc(F)c1F | 124% | 120% | 133% | 123% | 142% | 137% | 123% | 141% | 121% | 51.6% | 39% | 115% | 117% | 121% | 118% | 122% | 129% | 131% | 116% | 122% | 89.1% | 26.5% |  |  |  |  |  |  |  |  |  |  |  |
| COc1ccc(/C=C\c2cc(OC)c(OC)c(OC)c2)cc1O | 43.4% | 51.5% | 49% | 49% | 44.6% | 47% | 41.7% | 36.6% | 36.1% | 25.3% | 23.2% | 32.1% | 33.7% | 31.2% | 31.2% | 31.7% | 26.6% | 22.5% | 22.1% | 23.3% | 19% | 14.7% | 37.3% | 35.2% | 40.9% | 38.7% | 34.9% | 33.4% | 31.8% | 30.7% | 27.8% | 23.4% | 20% |
| Cc1ccc(-n2nc(C(C)(C)C)cc2NC(=O)Nc2ccc(OCCN3CCOCC3)c3ccccc23)cc1 | 104% | 103% | 119% | 123% | 114% | 104% | 111% | 115% | 120% | 114% | 96% | 102% | 101% | 113% | 103% | 104% | 97.1% | 107% | 106% | 95.8% | 95.4% | 98.1% | 88.2% | 105% | 111% | 106% | 106% | 108% | 118% | 120% | 99.9% | 107% | 96.2% |
| Nc1ccccc1NC(=O)c1ccc(CNc2nccc(-c3cccnc3)n2)cc1 | 111% | 115% | 117% | 118% | 119% | 117% | 105% | 72.1% | 23.4% | 9.43% | 9.03% | 90.9% | 113% | 103% | 103% | 122% | 114% | 97.8% | 83.2% | 27.2% | 9.84% | 8.73% | 108% | 117% | 115% | 119% | 132% | 114% | 106% | 74.7% | 24.2% | 12.2% | 10.7% |
